Legend:
Type in all cases: cell-based, mouse
RAW267.4 cells [1] = test: Cell death of confluent RAW267.4 cells (cell count after additional 2 days culture); conditions: single agent 0.1, 1.0, 10 and 100 μM, FIGS. 2A and B
Procedure: RAW267.4 cells were cultured for 3 days in Dulbecco's modification of Eagle's medium, and then the cells were additionally cultured for 2 days in the presence or absence of (A) alendronate, (B) genistein or alendronate plus genistein. After culture, the number of attached cells on the dish was counted.
RAW267.4 cells (1×10^5/ml cells/well; 2 ml medium added per well in 24-well plates) were cultured in DMEM containing 10% FBS and 1% P/S for 3 days when confluence was reached (24). The cells were then cultured for an additional 2 days in the presence or absence of alendronate (0.1, 1, 10 or 100 μM), genistein (0.1, 1, 10 or 100 μM), or alendronate (0.1, 1, 10 or 100 μM) plus genistein (0.1, 1, 10 or 100 μM). After culture, cells were detached from each culture dish and counted as described for the cell proliferation assay.

RAW264.7 cells = test: Osteoclastogenesis assay, RANKL-induced, TRAP staining (TRAP-positive multinucleated cells); conditions: RANKL 30 ng/ml, 6 days; for effect on RANKL-induced osteoclastic differentiation (TRAP+ multinucleated cells): FIG. 3A; for effect on RANKL-stimulated osteoclastic differentiation (TRAP+ multinucleated cells): FIG. 3B
Procedure: Cells were cultured for 6 days with RANKL (30 ng/ml) pre-incubated for 10 min with crosslinking anti-poly-histidine antibody (2.5 μg/ml) in the presence or absence of vehicle (0.1% ethanol), (A) alendronate, (B) genistein or (C) alendronate plus genistein. After 6 days of culture, the cells were fixed and stained for TRAP.
RAW264.7 cells were cultured in 96-well plates in DMEM supplemented with 10% FBS and 1% P/S at a density of 1×10^4 cells/well. Cells were cultured for 6 days with RANKL (30 ng/ml) pre-incubated for 10 min with crosslinking anti-poly-histidine antibody (2.5 μg/ml; IC050P; R&D Systems, Inc., Minneapolis, Minn., USA) to induce osteoclast formation (21,22), in the presence or absence of vehicle (ethanol; final concentration 0.1%), alendronate (0.1, 1, 10 or 100 μM), genistein (0.1, 1, 10 or 100 μM), or alendronate (0.1, 1, 10 or 100 μM) plus genistein (0.1, 1, 10 or 100 μM). After 6 days of culture, the cells were fixed and stained for TRAP, a specific marker of the osteoclast phenotype, using a leukocyte acid phosphatase kit. […] TRAP-positive multinucleated cells (MNCs with at least three nuclei) were considered to be osteoclast-like cells, and the cells were counted using light microscopy (Olympus MTV-3). MNC scores are expressed as the mean±standard deviation of six cultures with two replicate wells per data set using different dishes and cell preparation.

RAW267.4 cells [2] = test: Cell proliferation of RAW267.4 cells (attached cell count after 3 days culture); conditions: single agent 0.1, 1.0, 10 and 100 μM, control 0.1% ethanol vehicle, FIGS. 1A and B
Procedure: RAW267.4 cells were cultured for 3 days in Dulbecco's modification of Eagle's medium containing vehicle (0.1% ethanol), (A) alendronate, (B) genistein or (C) alendronate plus genistein. After culture, the number of attached cells on the dish was counted. Data are presented as the mean±standard deviation of two replicate wells per data set using different dishes and cell preparation. *P<0.001 vs. control group (grey bar) as determined by one-way analysis of variance and Tukey-Kramer post hoc test.
RAW267.4 cells (1×10^5/ml cells/well; 2 ml medium added per well in 24-well plates) were cultured in DMEM containing 10% FBS and 1% P/S for 3 days in a water-saturated atmosphere containing 5% CO2 and 95% air at 37° C. (23). The cells were cultured in the presence or absence of vehicle (ethanol; final concentration 0.1%), alendronate (0.1, 1, 10 or 100 μM), genistein (0.1, 1, 10 or 100 μM), or alendronate (0.1, 1, 10 or 100 μM) plus genistein (0.1, 1, 10, or 100 After culture, cells were detached from each culture dish and counted. Following trypsinization of each of culture dish using 0.2% trpysin plus 0.02% EDTA in Ca^2+/Mg^2+-free PBS for 2 min at 37° C., cells detached from the dish were collected following centrifugation at 150×g (4° C.) for 5 min (23). Cells were resuspended in PBS solution and stained with eosin. […] For each dish, the average of two counts was calculated. […]

SMILES | alteration in the number of RAW267.4 cells (cell death) (RAW267.4 cells [1]) | effect on RANKL-induced osteoclastic differentiation (TRAP+ multinucleated cells) (RAW264.7 cells; alendronate alone 100 μM) | effect on RANKL-induced osteoclastic differentiation (TRAP+ multinucleated cells) (RAW264.7 cells; alendronate alone 0.1, 1.0 and 10 μM) | effect on the proliferation of RAW267.4 cells (number of attached cells) vs control (RAW267.4 cells [2]) | effect on RANKL-stimulated osteoclastic differentiation (TRAP+ multinucleated cells) (RAW264.7 cells; genistein alone 0.1 and 1.0 μM) | effect on RANKL-stimulated osteoclastic differentiation (TRAP+ multinucleated cells) (RAW264.7 cells; genistein alone 10 and 100 μM)
NCCCC(O)(P(=O)(O)O)P(=O)(O)O [alendronate] | did not cause a significant alteration | suppressed | had no significant effect | did not have a significant effect |  | 
O=c1c(-c2ccc(O)cc2)coc2cc(O)cc(O)c12 [genistein, 4′,5,7-trihydroxyisoflavone] | did not cause a significant alteration |  |  | did not have a significant effect | did not reveal an effect | suppressed
